PubChem BioAssay (NCI)
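Following 48 hours of exposure in 96-well plates, responses at five concentrations were used to interpolate endpoints linearly. At the TGI there is no net growth.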

Tests used:
Test in all cases: inhibition of tumour cell growth, NCI panel, 48 h
[1] = system: 786-0 renal
[2] = system: A498 renal
[3] = system: A549 NSCLC
[4] = system: ACHN renal
[5] = system: BT-549 breast
[6] = system: CAKI-1 renal
[7] = system: CCRF-CEM leukemia
[8] = system: COLO 205 colon
[9] = system: DU-145 prostate
[10] = system: EKVX NSCLC
[11] = system: HCC-2998 colon
[12] = system: HCT-116 colon
[13] = system: HCT-15 colon
[14] = system: HOP-62 NSCLC
[15] = system: HOP-92 NSCLC
[16] = system: HS 578T breast
[17] = system: HT29 colon
[18] = system: IGROV1 ovarian
[19] = system: K-562 leukemia
[20] = system: KM12 colon
[21] = system: LOX IMVI melanoma
[22] = system: M14 melanoma
[23] = system: MALME-3M melanoma
[24] = system: MCF7 breast
[25] = system: MDA-MB-231 breast
[26] = system: MDA-MB-435
[27] = system: MDA-N
[28] = system: MOLT-4 leukemia
[29] = system: NCI-H226 lung
[30] = system: NCI-H23 lung
[31] = system: NCI-H460 lung
[32] = system: NCI-H522 lung
[33] = system: NCI/ADR-RES ovarian
[34] = system: OVCAR-3 ovarian
[35] = system: OVCAR-4 ovarian
[36] = system: OVCAR-5 ovarian
[37] = system: OVCAR-8 ovarian
[38] = system: PC-3 prostate
[39] = system: RPMI-8226 leukemia
[40] = system: RXF 393 renal
[41] = system: SF-268 CNS
[42] = system: SF-295 CNS
[43] = system: SF-539 CNS
[44] = system: SK-MEL-2 melanoma
[45] = system: SK-MEL-28 melanoma
[46] = system: SK-MEL-5 melanoma
[47] = system: SK-OV-3 ovarian
[48] = system: SN12C renal
[49] = system: SNB-19 CNS
[50] = system: SNB-75 CNS
[51] = system: SR leukemia
[52] = system: SW-620 colon
[53] = system: T-47D breast
[54] = system: TK-10 renal
[55] = system: U251 CNS
[56] = system: UACC-257 melanoma
[57] = system: UACC-62 melanoma
[58] = system: UO-31 renal
[59] = system: HL-60(TB) leukemia

In the case of `Cc1cc(O)c2c3c(ccc2c1)C(=O)c1c(O)cccc1C3=O`, the TGI [1] is reported as > 100 µM, the TGI [2] is reported as > 100 µM and the TGI [3] is reported as > 100 µM. For the same compound, the TGI [4] was > 100 µM, the TGI [5] was > 100 µM and the TGI [6] was > 100 µM. For the same compound, the TGI [7] was > 100 µM, the TGI [8] was 12.4 µM and the TGI [9] was > 100 µM. For the same compound, the TGI [10] was > 100 µM, the TGI [11] was > 100 µM and the TGI [12] was > 100 µM. The TGI [13] was > 100 µM, the TGI [14] was > 100 µM and the TGI [15] was > 100 µM. For the same compound, the TGI [16] was > 100 µM, the TGI [17] was > 44.9 µM and the TGI [18] was > 20.3 µM. The TGI [19] was > 100 µM, the TGI [20] was > 37.8 µM and the TGI [21] was > 100 µM. The TGI [22] was > 26.2 µM, the TGI [23] was 0.0846 µM and the TGI [24] was > 100 µM. For the same compound, the TGI [25] was > 100 µM, the TGI [26] was 0.341 µM and the TGI [27] was 0.353 µM. For the same compound, the TGI [28] was > 39.1 µM, the TGI [29] was > 100 µM and the TGI [30] was > 100 µM. For the same compound, the TGI [31] was > 27 µM, the TGI [32] was > 32.3 µM and the TGI [33] was > 100 µM. The TGI [34] was 3.45 µM, the TGI [35] was 29.8 µM and the TGI [36] was > 100 µM. The TGI [37] was > 100 µM, the TGI [38] was > 100 µM and the TGI [39] was > 100 µM. The TGI [40] was > 100 µM, the TGI [41] was > 45 µM and the TGI [42] was > 100 µM. The TGI [43] was 50.5 µM, the TGI [44] was > 100 µM and the TGI [45] was > 100 µM. For the same compound, the TGI [46] was 1.4 µM, the TGI [47] was > 100 µM and the TGI [48] was > 100 µM. For the same compound, the TGI [49] was > 100 µM, the TGI [50] was > 74.7 µM and the TGI [51] was 26.5 µM. For the same compound, the TGI [52] was > 100 µM, the TGI [53] was > 100 µM and the TGI [54] was > 100 µM. The TGI [55] was > 100 µM, the TGI [56] was > 100 µM and the TGI [57] was 13.6 µM. The TGI [58] was > 100 µM.
For `Cc1cccc(CNc2ncnc3[nH]ncc23)c1`, the TGI [1] was > 100 µM, the TGI [2] was > 100 µM and the TGI [3] was > 100 µM. For the same compound, the TGI [4] was > 100 µM, the TGI [5] was > 100 µM and the TGI [6] was > 100 µM. For the same compound, the TGI [7] was > 100 µM, the TGI [8] was > 100 µM and the TGI [9] was > 100 µM. The TGI [10] was > 100 µM, the TGI [12] was > 100 µM and the TGI [13] was > 100 µM. The TGI [59] was > 100 µM, the TGI [14] was > 100 µM and the TGI [15] was > 100 µM. For the same compound, the TGI [16] was > 100 µM, the TGI [17] was > 100 µM and the TGI [18] was > 100 µM. For the same compound, the TGI [19] was > 100 µM, the TGI [20] was > 100 µM and the TGI [21] was > 100 µM. For the same compound, the TGI [22] was > 100 µM, the TGI [23] was > 100 µM and the TGI [24] was > 100 µM. For the same compound, the TGI [25] was > 100 µM, the TGI [26] was > 100 µM and the TGI [27] was > 100 µM. The TGI [28] was > 100 µM, the TGI [29] was > 100 µM and the TGI [30] was > 100 µM. For the same compound, the TGI [31] was > 100 µM, the TGI [32] was > 100 µM and the TGI [33] was > 100 µM. For the same compound, the TGI [34] was > 100 µM, the TGI [35] was > 100 µM and the TGI [36] was > 100 µM. For the same compound, the TGI [37] was > 100 µM, the TGI [38] was > 100 µM and the TGI [39] was > 100 µM. The TGI [40] was > 100 µM, the TGI [41] was > 100 µM and the TGI [42] was > 100 µM. For the same compound, the TGI [43] was > 100 µM, the TGI [44] was > 100 µM and the TGI [45] was > 100 µM. The TGI [46] was > 100 µM, the TGI [47] was > 100 µM and the TGI [48] was > 100 µM. For the same compound, the TGI [49] was > 100 µM, the TGI [50] was > 100 µM and the TGI [51] was > 100 µM. For the same compound, the TGI [52] was > 100 µM, the TGI [53] was > 100 µM and the TGI [54] was > 100 µM. For the same compound, the TGI [55] was > 100 µM, the TGI [56] was > 100 µM and the TGI [57] was > 100 µM. For the same compound, the TGI [58] was > 100 µM.
